Measurements: ChEMBL document CHEMBL4627315, “Promising antifungal agents: A minireview” (2020)
≈ marks a conversion by molar mass, not a printed value.

Key:
[1] = tested on: Saccharomyces cerevisiae; assay: Antifungal activity against Saccharomyces cerevisiae; format: functional
[2] = tested on: Cryptococcus neoformans; assay: Antifungal activity against Cryptococcus neoformans; format: functional
[3] = tested on: Fusarium graminearum; assay: Antifungal activity against Fusarium graminearum; format: functional
[4] = tested on: Aspergillus niger; assay: Antifungal activity against Aspergillus niger assessed as zone of inhibition by serial dilution and disc diffusion method; format: functional
[5] = tested on: Aspergillus flavus; assay: Antifungal activity against Aspergillus flavus assessed as zone of inhibition by serial dilution and disc diffusion method; format: functional
[6] = tested on: Candida albicans; assay: Antifungal activity against Candida albicans assessed as zone of inhibition by serial dilution and disc diffusion method; format: functional
[7] = tested on: Rhizopus; assay: Antifungal activity against Rhizopus assessed as zone of inhibition by serial dilution and disc diffusion method; format: functional
[8] = tested on: Aspergillus niger; assay: Potency index, ratio of Amphotericin B IZ to test compound IZ for Aspergillus niger assessed as zone of inhibition by serial dilution and disc diffusion method; format: functional
[9] = tested on: Aspergillus flavus; assay: Potency index, ratio of Amphotericin B IZ to test compound IZ for Aspergillus flavus assessed as zone of inhibition by serial dilution and disc diffusion method; format: functional
[10] = tested on: Candida albicans; assay: Potency index, ratio of Amphotericin B IZ to test compound IZ for Candida albicans assessed as zone of inhibition by serial dilution and disc diffusion method; format: functional
[11] = tested on: Rhizopus; assay: Potency index, ratio of Amphotericin B IZ to test compound IZ for Rhizopus assessed as zone of inhibition by serial dilution and disc diffusion method; format: functional
[12] = tested on: Candida albicans; assay: Antifungal activity against Candida albicans assessed as zone of inhibition at 25 to 100 ug/ml; format: functional
[13] = tested on: Cryptococcus gattii; assay: Antifungal activity against Cryptococcus gattii; format: functional, Cryptococcus gattii VGI

Structure (SMILES): CCCCCCCCO[C@H]1[C@H](N)[C@@H](O)[C@@H](O[C@@H]2[C@@H](O)[C@H](O[C@H]3O[C@H](CN)[C@@H](O)[C@H](O)[C@H]3N)[C@@H](N)C[C@H]2N)O[C@@H]1C
- MIC [1]: 4 to 31.3 µg/mL (≈ 6.9 to 54 µM)
- MIC [2]: 3.9 to 7.8 µg/mL (≈ 6.73 to 13.5 µM)
- MIC [3]: 7.8 µg/mL (≈ 13.5 µM)

Structure (SMILES): Cc1nc(-c2ccc(F)c(Br)c2)n(CCN2CCNCC2)c1C
- inhibition zone (IZ) [4]: 18 - 21 mm
- inhibition zone (IZ) [5]: 18 - 21 mm
- inhibition zone (IZ) [6]: 18 - 21 mm
- inhibition zone (IZ) [7]: 18 - 21 mm
- Ratio [8]: 1.5 - 2
- Ratio [9]: 1.5 - 2
- Ratio [10]: 1.5 - 2
- Ratio [11]: 1.5 - 2

Structure (SMILES): Cc1nc(-c2ccc(Cl)cc2)n(CCN2CCNCC2)c1C
- inhibition zone (IZ) [4]: 16 - 20 mm
- inhibition zone (IZ) [5]: 16 - 20 mm
- inhibition zone (IZ) [6]: 16 - 20 mm
- inhibition zone (IZ) [7]: 16 - 20 mm
- Ratio [8]: 1.5 - 2
- Ratio [9]: 1.5 - 2
- Ratio [10]: 1.5 - 2
- Ratio [11]: 1.5 - 2

Structure (SMILES): Cc1nc(-c2cccs2)n(CCN2CCNCC2)c1C
- inhibition zone (IZ) [4]: 16 - 200 mm
- inhibition zone (IZ) [5]: 16 - 200 mm
- inhibition zone (IZ) [6]: 16 - 200 mm
- inhibition zone (IZ) [7]: 16 - 200 mm

Structure (SMILES): Cc1nc(-c2ccc(F)cc2)n(CCN2CCNCC2)c1C
- inhibition zone (IZ) [4]: 16 - 22 mm
- inhibition zone (IZ) [5]: 16 - 22 mm
- inhibition zone (IZ) [6]: 16 - 22 mm
- inhibition zone (IZ) [7]: 16 - 22 mm
- Ratio [8]: 1.5 - 2
- Ratio [9]: 1.5 - 2
- Ratio [10]: 1.5 - 2
- Ratio [11]: 1.5 - 2

Structure (SMILES): C[C@@H]1[C@H](O)[C@@H](C)/C=C/C=C/C=C/C=C/C=C/C=C/C=C/[C@H](O[C@@H]2O[C@H](C)[C@@H](O)[C@H](N)[C@@H]2O)C[C@@H]2O[C@](O)(C[C@@H](O)C[C@@H](O)[C@H](O)CC[C@@H](O)C[C@@H](O)CC(=O)O[C@H]1C)C[C@H](O)[C@H]2C(=O)O [AMPHOTERICIN B]
- inhibition zone (IZ) [4]: 11 - 14 mm
- inhibition zone (IZ) [5]: 11 - 14 mm
- inhibition zone (IZ) [6]: 11 - 14 mm
- inhibition zone (IZ) [7]: 11 - 14 mm

Structure (SMILES): OC(Cn1cncn1)(Cn1cncn1)c1ccc(F)cc1F [FLUCONAZOLE]
- inhibition zone (IZ) [12]: 2.6 - 2.8 cm

Structure (SMILES): C/C(=C(/OCCOc1ccc(Cl)cc1)c1ccc(Cl)cc1Cl)n1ccnc1 [OMOCONAZOLE]
- MIC [13]: ≤ 4 µg/mL

Structure (SMILES): Clc1ccc(CO/N=C(\Cn2ccnc2)c2ccc(Cl)cc2Cl)c(Cl)c1 [OXICONAZOLE]
- MIC [13]: ≤ 4 µg/mL
